The record followed here is patent US7195885B2, “Hepatitis C virus assays” (Bristol-Myers Squibb Company, priority 2002, dated 2007).

Series [1] deals with HCV replicon cell line (NS3 protein). In words: Western analysis of NS3 protein in the HCV replicon cell line. The series is classed as cell-based, Hepatitis C virus. The method, then: Experiments were done in duplicate. Western analysis was performed according to the instructions for Amershams Chemiluminescence Immunology Kit (NEL105 Renaissance) using a Molecular Dynamics Storm 860 phosphoimager and associated software. The primary and secondary antibody dilutions were at 1 to 5,000. Antisera was generated by immunizing rabbits with purified NS3 protease made from an E. Coli expression vector encoding the first 181 amino acids of HCV 1a NS3 with subsequent boosts.
Bleeds were tested weekly and boosts continued until a positive signal on a control western was seen. Secondary antibody was a BioRad (#170–6515) Goat anti-Rabbit IgG HRP Conjugate. The protein samples for western analysis were from the same wells used for the FRET assay and were prepared by the addition of an equal volume of 2×SDS-PAGE buffer to the FRET assay mixture, heating and loading on a 10% gel for SDS-PAGE. Interferon alpha (IFN-α) was obtained from Sigma (#I-4276) and stored as recommended.
In general terms: In antiviral work, replicon cells carry a viral genome segment that copies itself.

Series [2] relates to HCV replicon cell line (Huh-7). In words: Alamar Blue cytotoxicity assay step. The series is classed as cell-based. (Alamar Blue is a resazurin reagent that responds to reducing activity.)
The test system of series [3] is HCV replicon cell line (HCV RNA). In words: Quantitative RT-PCR of HCV RNA in the HCV replicon cell line.
Series [4] concerns HCV replicon cell line (NS3 protease activity). In words: HCV replicon FRET assay (NS3 protease activity as indirect measure of HCV RNA replication).
Description: The HCV replicon cell line was isolated from colonies as described by Lohman et al. al. (Lohman, supra) and used for all experiments.
These cell lines were maintained at 37° C., 5% CO2, 100% relative humidity in DMEM (Life Technologies #11965-084) with 10% heat inactivated calf serum (Sigma #F-2442), 100 U/ml of penicillin/streptomycin (Life Technologies #15140-122), Geneticin at 1 mg/ml (Life Technologies #10131-027). One of the cell lines which had approximately 3,000 copies of HCV replicon RNA/cell was used for development of the assay.
To perform the HCV FRET screening assay, 96-well cell culture plates were used.
The assay reagent was made as follows: 5× cell Luciferase cell culture lysis reagent from Promega (#E153A) diluted to 1× with dH2O, NaCl added to 150 mM final, the FRET peptide diluted to 20 uM final from a 2 mM stock. Cells were trypsinized, placed into each well of a 96-well plate and allowed to attach overnight. The next day, the test compounds were added to columns 1 through 10; column 11 was media only, and column 12 contained a titration of interferon as a control (1000 units for A12, B12, 100 units for C12, D12, 10 units for E12, F12 and 1 unit for G12, H12). In addition, replicon cells in A12, B12 can be replaced, if desired, with naïve Huh-7 cells as a negative background control. The plates were then placed back in the incubator.
Subsequent to addition of the test compounds described above (FRET Assay Preparation), at various times the plate was removed and Alamar Blue solution (Trek Diagnostics, #00–100) was added per well as a measure of cellular toxicity.
Compound analysis was determined by quantification of the relative HCV replicon inhibition and the relative cytotoxicity values.
[5] abbreviates: FIG. 6A, titration 0.1 to 1,000 units per milliliter, 96 hours of incubation.
Where [6] appears, read: interferon titration in HCV replicon cell line.

As for interferon-α [IFN-α], the “EC50, Western” value in series [1] (setting [5]) is reported as 1.9 units of IFN-α per milliliter. Besides, the “EC50, western assay” value in series [1] (setting [6]) worked out at 1.9 units. Also, the “cytotoxicity (Alamar Blue)” value in series [2] (highest concentration of IFN-α, 1000 units, FIG. 7B wells A12 and B12) is recorded as “Approximately 18%”. In series [2] (lower concentrations of IFN-α (below 1000 units)), the “cytotoxicity (Alamar Blue), in words” value is reported as “no apparent Alamar Blue staining change”. Further, the “EC50, RT-PCR” value in series [3] (setting [5]) was 5.3 units of IFN-α per milliliter. Further, the “EC50, qRT-PCR assay” value in series [3] (setting [6]) amounted to 5.3 units. The “EC50, FRET” value in series [4] (setting [5]) was 2.9 units of IFN-α per milliliter. For the same substance, the “EC50, FRET assay” value in series [4] (setting [6]) came to 2.9 units. For the same substance, the “EC50 in IFN-α control samples of the compound plate, in words” value in series [4] (random compound plate control titration 1000, 100, 10, 1 units, FIG. 7A) was “close to or slightly lower than the lowest concentration of IFN-α used”.
